Data taken from patent publication US6783539B1, “Phototriggerable, collagen-crosslinking compounds for wound closure” (University of Kansas Medical Center, priority 2001, dated 2004).

Assay: Photoactivated welding of rabbit Achilles tendon pieces, tensile strength by tensiometer
Settings: mixture of 1.2 M DPD and 1.2 M DEDA in DMSO between two tendon pieces, 2 W, 500 sec (1,000 J)
Experimental: A rabbit Achilles tendon, previously stored at −70° C., was dissected from the remaining muscle, cleaned of fascia and muscle, and divided in half along its length.
One tendon piece was placed diagonally on a fused silica (UV transparent) glass slide and several drops of the mixture was placed in the center of the tendon piece. The other tendon piece was placed on top, forming an “X” shape with the mixture in between the two pieces at their intersection. Another identical slide was placed on top and light pressure was applied to the two slides.
The tendons and slides were then placed beneath a liquid light guide that delivered light from a filtered mercury-arc light source (320-500 nm, 2 W) and exposed for 500 sec (1,000 J).
After light exposure, the tendons were removed from the slide and placed on an illuminated grid beneath a CCD camera with a macro lens. An image of the overlapped (i.e. “welded”) area was digitized and stored. Measurement of the overlapped area was made using standard computer software.
The welded tendon was then placed in a tensiometer to measure tensile strength. One tendon end was clamped and attached to a strain gauge, while the opposite end of the other tendon clamped to a block moved by a lead screw.
The maximum force tolerated by the bonded tendon before breaking was divided by the bonded area to calculate the Maximum Stress in Newtons/cm^2.

[N-]=[N+]=CC(=O)C(=O)NCCOCCOCCNC(=O)C(=O)C=[N+]=[N-] [DPD, N,N′-bis(3-diazapynivoyl)-2,2′-(ethylenedioxy)bis(ethylamine)]
Observation of tendon welding after light exposure (320-500 nm): welded together
Maximum Stress (maximum force tolerated by the bonded tendon before breaking divided by the bonded area) (filtered mercury-arc light 320-500 nm): 31.7 N/cm^2
